From ChEMBL document CHEMBL5131394, “Structure-activity and mechanistic studies of non-peptidic inhibitors of the PLK1 polo box domain identified through REPLACE” (Eur J Med Chem, 2022)

Experiments:
[1] = target: T1, Serine/threonine-protein kinase PLK1 (Homo sapiens, UniProt P53350); test: Binding affinity to recombinant human N-terminal GST-tagged PLK1-PBD (367 to 603 end residue) expressed in Escherichia coli using MAGPMQS[pT]PLNGAKK as substrate incubated for 45 mins by fluorescence polarization assay
T1 sequence (P53350 whole entry): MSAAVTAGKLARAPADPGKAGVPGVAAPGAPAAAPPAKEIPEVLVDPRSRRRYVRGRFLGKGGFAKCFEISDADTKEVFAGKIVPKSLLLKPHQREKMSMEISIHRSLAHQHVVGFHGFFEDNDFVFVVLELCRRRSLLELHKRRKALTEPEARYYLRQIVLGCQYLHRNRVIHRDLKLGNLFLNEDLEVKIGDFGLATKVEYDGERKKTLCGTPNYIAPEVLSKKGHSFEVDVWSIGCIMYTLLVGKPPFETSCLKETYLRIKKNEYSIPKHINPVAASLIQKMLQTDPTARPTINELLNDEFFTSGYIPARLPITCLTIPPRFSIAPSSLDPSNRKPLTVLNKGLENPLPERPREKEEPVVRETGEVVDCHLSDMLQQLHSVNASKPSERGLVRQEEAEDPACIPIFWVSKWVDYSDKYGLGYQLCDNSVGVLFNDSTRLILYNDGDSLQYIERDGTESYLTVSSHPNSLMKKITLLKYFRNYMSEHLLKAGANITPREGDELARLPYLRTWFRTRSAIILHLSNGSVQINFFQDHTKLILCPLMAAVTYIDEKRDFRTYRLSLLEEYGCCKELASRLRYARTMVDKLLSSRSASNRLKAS

PC-3 [2] = test: Antiproliferative activity against human PC-3 cells assessed as cell viability measured after 72 hrs by MTT assay; type: functional, cell-based; conditions: PC-3, 72 h
A549 = test: Antiproliferative activity against human A549 cells assessed as cell viability measured after 72 hrs by MTT assay; type: functional, cell-based; conditions: A549, 72 h
[3] = Antiproliferative activity against human HCT116-p53-null cells assessed as cell viability measured after 72 hrs by MTT assay; type: functional, cell-based
[4] = Antiproliferative activity against human RPE cells expressing wild-type PLK1 assessed as reduction in cell viability measured after 72 hrs by MTT assay; type: functional, cell-based
[5] = Antiproliferative activity against human RPE cells expressing PLK1 C67V mutant assessed as reduction in cell viability measured after 72 hrs by MTT assay; type: functional, cell-based
PC-3 [6] = test: Induction of mitotic arrest in human PC-3 cells assessed as accumulation of cells at G2/M phase; type: functional
[7] = target: T1, Serine/threonine-protein kinase PLK1; test: Binding affinity to full length PLK1 in human PC-3 cells assessed as stabilized protein incubated for 2 hrs followed by aggregation temperature at 56.2 degC by […] analysis; type: cell-based
[8] = Antiproliferative activity against human p53HCT116 cells assessed as cell viability measured after 72 hrs by MTT assay; type: functional, cell-based; conditions: p53HCT116, 72 h
HeLa = test: Antiproliferative activity against human HeLa cells assessed as cell viability measured after 72 hrs by MTT assay; type: functional, cell-based

Row | Structure (SMILES) | IC50 [1] [µM] | further results
1 | CCCCCc1ccc(C(=O)Nc2ccccc2C(=O)O)cc1 | 224 | 
2 | CCCCCCCCc1ccc(C(=O)Nc2ccccc2S(N)(=O)=O)cc1 | 259 | 
3 | CCCCCCCCc1ccc(C(=O)Nc2cccc(Cl)c2C(=O)O)cc1 | 25.3 | 
4 | CCCCCCCCc1ccc(CNc2cccc(OP(=O)(O)O)c2)cc1 | > 600 | 
5 | CCCCCCCCc1ccc(C(=O)Nc2cccc(C(F)(F)F)c2C(=O)O)cc1 | 29.4 | 
6 | CCCCCCCCc1ccc(C(=O)Nc2cccc(F)c2C(=O)O)cc1 | 11.1 | IC50 (PC-3 [2]): 11.6 µM; IC50 (A549): 2.9 µM; IC50 [3]: 10 µM; IC50 [4]: 8.79 µM; IC50 [5]: 9.1 µM
7 | CC[C@@H]1C(=O)N(C)c2cnc(Nc3ccc(C(=O)NC4CCN(C)CC4)cc3OC)nc2N1C1CCCC1 [BI-2536] |  | Activity (PC-3 [6]): >75%
8 | CCCCCCCCc1ccc(C(=O)Nc2ccc(C)cc2C(=O)O)cc1 | 2.2 | EC50 [7]: 0.82 µM; IC50 (PC-3 [2]): 16.3 µM; IC50 (A549): 5.1 µM; IC50 [3]: 10 µM; IC50 [8]: 17.4 µM; IC50 [4]: 13.4 µM; IC50 [5]: 12.6 µM
9 | CCCCCCCCc1ccc(C(=O)Nc2cccc([N+](=O)[O-])c2C(=O)O)cc1 | 6.1 | 
10 | CCCCCCCCc1ccc(C(=O)Nc2ccc(OC)cc2C(=O)O)cc1 | 5.9 | IC50 (HeLa): 8 µM
11 | CCCCCCCCc1ccc(C(=O)Nc2ccccc2C(=O)O)cc1 |  | IC50 (A549): 2.8 µM; IC50 [3]: 8 µM; IC50 [4]: 33 µM; IC50 [5]: 25.9 µM
12 | CCCCCCCCc1ccc(C(=O)Nc2ccccc2C(=O)OCC)cc1 | > 600 | IC50 (HeLa): > 100 µM; IC50 (PC-3 [2]): > 100 µM
13 | CCCCc1ccc(C(=O)Nc2ccccc2C(=O)O)cc1 | > 600 | 
14 | CCCCCCCCc1ccc(C(=O)Nc2cc(F)cc(F)c2C(=O)O)cc1 | 30.6 | 
15 | CCCCCCCCc1ccc(CNc2cccc(CC)c2)cc1 | > 600 | 
16 | CCCCCCCCc1ccc(C(=O)Nc2ccccc2[N+](=O)[O-])cc1 | > 600 | 
17 | CCCCCCCCc1ccc(CNc2ccc(C)cc2C(=O)O)cc1 | > 600 | 
18 | CCCCCCCCc1ccc(C(=O)Nc2c(O)cccc2C(=O)O)cc1 | 12 | 
19 | CCCCCCCCc1ccc(CNc2cc(C)ccc2C(=O)O)cc1 | 21.7 | 
20 | CCCCCCCCc1ccc(C(=O)Nc2cccc(OC)c2C(=O)O)cc1 | 29.6 | 
21 | CCCCCCCCc1ccc(CNc2ccccc2C(=O)O)cc1 | 9.8 | 
22 | CCCCCCCCc1ccc(CNc2cccc(F)c2C(=O)O)cc1 | 18.8 | 
23 | CCCCCCCCCCCCc1ccc(C(=O)Nc2ccccc2C(=O)O)cc1 |  | IC50 (PC-3 [2]): 14 µM
24 | CCCCCCCCc1ccc(C(=O)Nc2cccc(OP(=O)(O)O)c2)cc1 | 98.3 | 
25 | CCCCCCCCc1ccc(C(=O)Nc2cccc(O)c2C(=O)O)cc1 | 7.9 | 
26 | CCCCCCCCc1ccc(CCNc2ccccc2C(=O)O)cc1 | 118 | 
27 | CCCCCCCCc1ccc(C(=O)Nc2ccccc2B(O)O)cc1 | > 600 | 
28 | CCCCCCCCc1ccc(C(=O)Nc2cc(C)ccc2C(=O)O)cc1 | 4 | IC50 (PC-3 [2]): 18.8 µM; IC50 (A549): 3.5 µM; IC50 [3]: 11.4 µM; IC50 [8]: 24.2 µM
